Consider 19 molecules from US6387934B1, “2-Cyano-3,5-dihydroxyhex-2-enecarboxamide derivatives” (Aventis Pharma Deutschland GmbH, priority 1996, dated 2002).

Structures are written as SMILES. Counter-ions that a name gives are not always drawn.

For data set [1], the system named is chondrocytic proteoglycan metabolism. The data set can be described thus: Modulation of the chondrocytic proteoglycan metabolism (PG stimulation). Type of data set: cell-based, bulls. The settings on record: stimulation factor = proteoglycan content with active compound / untreated control, 10 μm test substance, 8 days, chondrocytes in agarose, Alcian Blue extinction at 610 nm, factor >1 = stimulation; for fold induction at 10 µM: Chondrocyte, 192 h. The procedure:
(§1) Cartilage cells can maintain their characteristic cartilage matrix metabolism ex vivo in suitable cell or tissue culture, i.e. the controlled synthesis and degradation of the matrix macromolecules, over a period of several weeks to months. These processes can be chemically influenced. […] In both assays, the stimulating action of the test substance is expressed by a stimulation factor which is calculated from the quotient of the specific proteoglycan content under the active compound condition divided by the proteoglycan content under the control condition. In Experiment A, the control condition is the untreated control group and in experimental procedure B this is the interleukin-1 (IL-1)-treated control group. A factor=1 can thus identify no action, a factor of >1 points to a stimulation and a factor of <1 to an inhibitory action.
A) Modulation of the chondrocytic proteoglycan metabolism (PG stimulation)
Cartilage samples are taken under sterile conditions from fetlock joints of freshly slaughtered bulls, incubated with 1% strength pronase (Boehringer) solution in Ham's F12 medium (Serva) at 37° C. for 1 hour, and the enzyme solution is replaced by a 0.025% strength collagenase type A (Worthington) solution in medium and incubated overnight. After filtering through a 50 μm nylon filter, centrifugation, resuspension and vitality testing, a cell suspension of 4×10^6 cells/ml of medium, enriched with 20% fetal calf serum, is prepared and mixed at approximately 38° C. with 2% strength low-melting agarose (Seplaque) in the ratio 1:1 and 0.1 ml of this is pipetted into each well of a 24 well microtiter plate. After gelling, the samples are covered with a layer of 0.5 ml/well of medium, which is enriched with 5% serum, 25 μm/ml of ascorbic acid, and in groups of up to 6-8 wells with 10 μm of the test substance. The medium in a constant composition is renewed every second day for a treatment period of 8 days. At the end of the treatment, washing is carried out with medium, 1 ml of a buffered (pH 5.6) 1% strength Alcian Blue (Sigma) solution, enriched with 25% strength glutaraldehyde in the ratio 7:1, per well is added and the mixture is incubated for 48 hours. After washing and differentiating with 3% strength acetic acid, dehydration is carried out up to 70% strength ethanol content by means of the rising alcohol series, and then the bound dye is extracted at 4° C. for 24 hours using 8 M guanidine hydrochloride. The stoichiometric binding of the Alcian Blue to the chondroitin sulfate side chains of the proteoglycans allows a quantification of the enriched matrix via the determination of the extinction of the dye solution at 610 nm.

Data set [2] relates to IL-1-induced chondrocytic chondrolysis. The data set can be described thus: Modulation of the IL-1-induced chondrocytic chondrolysis (chondrolysis compensation). Type of data set: cell-based, bulls. The settings on record: stimulation factor = proteoglycan content with active compound / IL-1-treated control; interleukin-1 for 8 days, 35S-sulfate incorporation 24 hours; factor >1 = stimulation. The protocol: as §1
B) Modulation of the IL-1-induced Chondrocytic Chondrolysis (Chondrolysis Compensation)
Cell preparation was carried out as described under A), if cartilage tissue explants are used these are added directly to the enriched culture medium described above after stamping out cartilage disks of 4 mm diameter and a depth which includes the entire cartilage layer. After adaptation for 5 days, interleukin-1 is added to the medium, 8 units/well for the cell culture, 20 units/well for the tissue culture, and, over the treatment period of 8 days, likewise added again every second day on changing the medium. At the end of the experiments, 1 μCi of Na2^35SO4/well is added and the mixture is incubated for 24 hours. After removing the supernatant, the remaining gels or explants are broken down in the microtiter plates by repeated deepfreezing and thawing and extracted with 8 M guanidine hydrochloride. After centrifugation, the supernatant is separated on a PD10 Sephadex column into free and incorporated sulfate and the radioactivity of the samples, which is a measure of the amount of proteoglycan newly formed, is determined in a β counter.

By fold induction is commonly meant the signal under treatment as a multiple of the control signal. Low values mean a weak induction, high ones a strong induction. One may read the melting point as the temperature, or range, at which the solid turns liquid.

For the molecule `C=C(C)C(O)C/C(O)=C(\C#N)C(=O)Nc1ccc(C(F)(F)F)cc1` (stereo not drawn) [Example 28], the fold induction at 10 µM in data set [1] came out at 1.1.

Turning to `CC(O)C/C(O)=C(\C#N)C(=O)Nc1ccc(C(F)(F)F)cc1` (stereo not drawn) [Example 37, N-(4-Trifluoromethylphenyl)-2-cyano-3,5-dihydroxyhex-2-carboxamide Lysinium Salt], in data set [2], the Chondrolysis compensation was 1.9. In addition, in data set [1], the PG stimulation is given as 1.1.

The molecule `N#C/C(C(=O)Nc1ccc(C(F)(F)F)cc1)=C(/O)CC(O)c1cccnc1` (stereo not drawn) [Example 21] yielded a melting point of 203 °C. This molecule returned a Chondrolysis compensation in data set [2] of 1.3. For the same molecule, the fold induction at 10 µM in data set [1] worked out at 1.2.

`C=CC(O)C/C(O)=C(\C#N)C(=O)Nc1ccc(C(F)(F)F)cc1` (stereo not drawn) [Example 39] gave a melting point of 133 to 135 °C. Also, in data set [2], the Chondrolysis compensation came out at 1.6. The same molecule yielded a PG stimulation in data set [1] of 1.7.

Molecule `CC(C)(O)C/C(O)=C(\C#N)C(=O)Nc1ccc(C(F)(F)F)cc1` [Example 2] had a melting point of 155 °C. The molecule further registered a Chondrolysis compensation in data set [2] of 1.9. The molecule also yielded a fold induction at 10 µM in data set [1] of 1.8.

For the molecule `CC(O)C/C(O)=C(\C#N)C(=O)Nc1ccccc1` (stereo not drawn) [Example 5], the melting point was 101 °C. The molecule further registered a Chondrolysis compensation in data set [2] of 1.8.

Molecule `CC(C)(O)C/C(O)=C(\C#N)C(=O)Nc1ccccc1` [Example 1, N-(Phenyl)-2-cyano-3,5-dihydroxy-5-methylhex-2-enecarboxamide] had a melting point of 103 °C. Further, in data set [2], the Chondrolysis compensation came out at 1.4.

For the molecule `N#C/C(C(=O)Nc1ccc(C(F)(F)F)cc1)=C(/O)CC(O)c1ccc2c(c1)OCO2` (stereo not drawn) [Example 19], in data set [2], the Chondrolysis compensation is 1.3. Besides, the fold induction at 10 µM in data set [1] is 1.1.

On to `N#C/C(C(=O)Nc1ccc(C(F)(F)F)cc1)=C(/O)CC(O)c1ccc(C#N)cc1` (stereo not drawn) [Example 16], for which the melting point stood at 180 °C. Further, the Chondrolysis compensation in data set [2] is listed as 1.1.

`N#C/C(C(=O)Nc1ccc(C(F)(F)F)cc1)=C(/O)CC(O)C#Cc1ccccc1` (stereo not drawn) [Example 26]: the melting point amounted to 168 °C. Besides, the Chondrolysis compensation in data set [2] stood at 1.9.

On to `CC(C)(O)C/C(O)=C(\C#N)C(=O)Nc1ccc(C(F)(F)F)cc1` [Example 38], for which the melting point is 145 to 148 °C. Moreover, the Chondrolysis compensation in data set [2] is reported as 1.8.

In data set [2], `CC(O)(C/C(O)=C(\C#N)C(=O)Nc1ccc(C(F)(F)F)cc1)C1CC1` (stereo not drawn) [Example 32] came in with a Chondrolysis compensation of 1.8. For the same molecule, the fold induction at 10 µM in data set [1] worked out at 1.1.

On to `N#C/C(C(=O)Nc1ccc(C(F)(F)F)cc1)=C(/O)CC(O)c1ccco1` (stereo not drawn) [Example 22], for which the Chondrolysis compensation in data set [2] was found to be 1.9. This molecule showed a fold induction at 10 µM in data set [1] of 1.1.

The molecule `COc1cc(C(O)C/C(O)=C(\C#N)C(=O)Nc2ccc(C(F)(F)F)cc2)cc(OC)c1OC` (stereo not drawn) [Example 18] registered a melting point of 154 °C. The Chondrolysis compensation in data set [2] is given as 1.2. In data set [1], the fold induction at 10 µM was determined as 1.1.

The molecule `CC(O)C/C(O)=C(\C#N)C(=O)Nc1ccc(C(F)(F)F)cc1` (stereo not drawn) [Example 9] gave a Chondrolysis compensation in data set [2] of 1.6. This molecule also yielded a fold induction at 10 µM in data set [1] of 1.5.

With `C=CC(O)C/C(O)=C(\C#N)C(=O)Nc1ccc(C(F)(F)F)cc1` (stereo not drawn) [Example 27], the melting point was found to be 141 °C. Further, the Chondrolysis compensation in data set [2] came out at 1.6. In data set [1], the fold induction at 10 µM was 1.7.

In the case of `CC(C)(O)C/C(O)=C(\C#N)C(=O)NCCc1ccccc1` [Example 4], the melting point stood at 81 °C. This molecule also returned a Chondrolysis compensation in data set [2] of 1.5.

In turn, `CC(C)=CC(O)C/C(O)=C(\C#N)C(=O)Nc1ccc(C(F)(F)F)cc1` (stereo not drawn) [Example 29] had a Chondrolysis compensation in data set [2] of 1.7. The molecule also had a fold induction at 10 µM in data set [1] of 1.1.

`N#C/C(C(=O)Nc1ccc(C(F)(F)F)cc1)=C(/O)CC(O)c1ccoc1` (stereo not drawn) [Example 23]: the melting point was 146 °C. In addition, in data set [2], the Chondrolysis compensation is listed as 1.9.
